In the CombiSolv-Exp solvation set (Vermeire and Green 2021):

Assay: solvent given as SMILES

CC(C)Cc1ccc(C(C)C(=O)O)cc1 (stereo unspecified)
Details | solvation free energy, 298 K [kcal/mol]
in CC(C)CO | -13.2
in CC(C)O | -13.4
in CCC(C)O | -13.2
in CCCCCCCCCCO | -13
in CCCCCCCO | -13.1
in CCCCCCO | -13.2
in CCCCCO | -13.1
in CCCCO | -13.1
in CCCO | -13.2
in CCO | -13.1
in CN(C)C=O | -13.1
in CO | -13.1
in Clc1ccccc1 | -11.9
in NC=O | -10.9
in O | -7

CCOC(C)O (stereo unspecified)
Details | solvation free energy, 298 K [kcal/mol]
in O | -6.7

CCCCCCCCCCCC(=O)OC
Details | solvation free energy, 298 K [kcal/mol]
in O | -2.91

N#Cc1ccc(O)cc1
Details | solvation free energy, 298 K [kcal/mol]
in O | -10.2

CCCC(=O)CCC
Details | solvation free energy, 298 K [kcal/mol]
in CCCCOCCCC | -5.6
in CO | -5.77
in O | -2.92

C=CC(C)=CCC=C(C)CCC=C(C)C
Details | solvation free energy, 298 K [kcal/mol]
in O | -1.06

CC1=CCC2CC1C2(C)C (stereo unspecified)
Details | solvation free energy, 298 K [kcal/mol]
in O | 0.97

c1ccccc1
Details | solvation free energy, 298 K [kcal/mol]
in BrC(Br)C(Br)Br | -4.27
in Brc1cccc2ccccc12 | -4.1
in C1=CCCCC1 | -4.37
in C1=Cc2ccccc2C1 | -4.39
in C1CCC(C2CCCCC2)CC1 | -3.96
in C1CCCCC1 | -4.21
in C1CCOC1 | -4.75
in C1COCCO1 | -4.53
in C=CCCCCCCCCCCCCCC | -3.83
in CC1CCCC1 | -4.19
in CC1CCS(=O)(=O)C1 | -4.11
in CC1COC(=O)O1 | -3.88
in CC#N | -4.25
in CC(=O)CC(C)C | -4.44
in CC(=O)N(C)C | -4.29
in CC(=O)O | -3.94
in CC(=O)OCc1ccccc1 | -4.26
in CC(=O)c1ccccc1 | -4.28
in CC(C)(C)O | -3.71
in CC(C)=O | -4.42
in CC(C)CC(C)(C)C | -3.95
in CC(C)CCCC(C)CCCC(C)CCCCC(C)CCCC(C)CCCC(C)C | -3.69
in CC(C)CO | -3.71
in CC(C)O | -3.71
in CC(O)CO | -3.21
in CCC#N | -4.47
in CCC(C)=O | -4.49
in CCC(C)O | -3.78
in CCCC#N | -4.29
in CCCCC#N | -4.42
in CCCCC(CC)COC(=O)CCCCC(=O)OCC(CC)CCCC | -4.09
in CCCCC(CC)COC(=O)c1ccccc1C(=O)OCC(CC)CCCC | -3.9
in CCCCCC | -4.03
in CCCCCC#N | -4.36
in CCCCCCC | -4
in CCCCCCCC | -3.96
in CCCCCCCCCC | -3.98
in CCCCCCCCCCCC | -3.85
in CCCCCCCCCCCCCCCC | -3.82
in CCCCCCCCCCCCO | -3.74
in CCCCCCCCCCO | -3.59
in CCCCCCCCCOC(=O)c1ccccc1C(=O)OCCCCCCCCC | -3.98
in CCCCCCCCO | -3.81
in CCCCCCCO | -3.83
in CCCCCO | -3.86
in CCCCCl | -4.46
in CCCCN(C=O)CCCC | -4.26
in CCCCOC(=O)c1ccccc1C(=O)OCCCC | -4.23
in CCCCOC(C)=O | -3.87
in CCCCOCCCC | -4.11
in CCCO | -3.84
in CCN1CCCC1=O | -4.5
in CCN(CC)C(C)=O | -4.39
in CCNC(C)=O | -4
in CCNC=O | -3.94
in CCO | -3.88
in CCOC(=O)c1ccccc1C(=O)OCC | -4.06
in CCOC(C)=O | -4.42
in CN1CCCC1=O | -4.43
in CN1CCCCC1=O | -4.47
in CN(C)P(=O)(N(C)C)N(C)C | -4.31
in CNC(C)=O | -3.87
in CNC=O | -3.83
in CO | -3.85
in COC(=O)OC | -4.41
in COC(C)(C)C | -4.31
in COC(C)=O | -4.38
in COCCO | -4.02
in CS(C)=O | -3.96
in Cc1ccc(C)cc1 | -4.37
in Cc1cccc2ccccc12 | -4.17
in Cc1cccc(C)c1 | -4.36
in Cc1cccc(O)c1 | -4
in Cc1ccccc1 | -4.47
in ClC(Cl)(Cl)Cl | -4.42
in ClC(Cl)C(Cl)Cl | -4.59
in ClC(Cl)Cl | -4.79
in ClCBr | -4.74
in ClCCCl | -4.59
in ClCCl | -4.8
in Clc1cccc2ccccc12 | -4.07
in Clc1ccccc1 | -4.44
in N#CCCCC#N | -3.59
in N#CCCCCC#N | -3.92
in N#CCCO | -3.5
in N#CCc1ccccc1 | -4.13
in N#Cc1ccccc1 | -4.35
in NC=O | -2.69
in NCCN | -3.63
in NCCO | -3.09
in NCc1ccccc1 | -4.23
in Nc1ccccc1 | -4.07
in O | -0.87
in O=C1CCCCC1 | -4.55
in O=C1CCCO1 | -4.16
in O=C(O)C(Cl)Cl | -4.09
in O=CN1CCOCC1 | -4.02
in O=Cc1ccco1 | -4.04
in OC1CCCCC1 | -3.85
in OCC1CCCO1 | -4.04
in OCCCCCO | -3.33
in OCCCCO | -3.36
in OCCCO | -3.12
in OCCCl | -3.65
in OCCO | -2.76
in OCCOCCO | -3.38
in OCCOCCOCCO | -3.43
in OCCOCCOCCOCCO | -3.56
in OCCS | -3.62
in OCCc1ccccc1 | -3.96
in OCc1ccccc1 | -3.94
in OCc1ccco1 | -3.89
in S=C=S | -4.51
in [2H]O[2H] | -1.01
in c1ccc2c(c1)CCCC2 | -4.33
in c1ccc2ncccc2c1 | -4.31
in c1ccc(C2CCCCC2)cc1 | -4.19
in c1ccncc1 | -4.51
in c1ccsc1 | -4.61

COC(=O)c1ccc(N)cc1
Details | solvation free energy, 298 K [kcal/mol]
in CCCO | -11.1

COC(=O)c1cc(OC)c(O)c(-c2cc(C(=O)OC)cc(OC)c2O)c1
Details | solvation free energy, 298 K [kcal/mol]
in CCC(C)=O | -20.8
in CCCO | -20.8
in ClC=CCl | -21.7
in O | -17.3

CNCCc1ccc(OC)cc1
Details | solvation free energy, 298 K [kcal/mol]
in C=CCCCCCCC=C | -9.47
in O | -7.94

CC(C)CO
Details | solvation free energy, 298 K [kcal/mol]
in Brc1ccccc1 | -4.23
in C1CCCCC1 | -3.98
in CC(=O)N(C)C | -6.04
in CC(C)(C)O | -5.95
in CC(C)CC(C)(C)C | -3.55
in CC(C)CCCC(C)CCCC(C)CCCCC(C)CCCC(C)CCCC(C)C | -3.1
in CCC(C)=O | -5.43
in CCC(C)O | -5.95
in CCCCCC | -3.58
in CCCCCCC | -3.51
in CCCCCCCC | -3.33
in CCCCCCCCCCCCCCCC | -3.25
in CCCCCCCCCCO | -5.43
in CCCCCCCCO | -5.36
in CCCCCO | -5.73
in CCCCCl | -4.41
in CCCCN(C=O)CCCC | -5.76
in CCCCO | -5.74
in CCCCOC(C)=O | -4.84
in CCCOCCC | -4.78
in CCOC(=O)c1ccccc1C(=O)OCC | -4.88
in CCOP(=O)(OCC)OCC | -5.79
in CN1CCCC1=O | -6.03
in CN1CCN(C)C1=O | -5.9
in CNC(C)=O | -5.91
in CO | -6.18
in Cc1ccc(C)cc1 | -4.25
in Cc1cccc(C)c1 | -4.1
in Clc1ccccc1 | -4.26
in O | -4.52
in O=CN1CCOCC1 | -5.3
in OCCOCCO | -5.51
in [2H]O[2H] | -4.59

CC(C)(C)c1ccccc1
Details | solvation free energy, 298 K [kcal/mol]
in C1CCOC1 | -6.93
in CC#N | -5.86
in CC(C)O | -5.63
in CO | -5.52
in O | -0.42

Clc1ccc(Br)cc1
Details | solvation free energy, 298 K [kcal/mol]
in CC(C)CO | -6.51
in CCCCOCCCC | -7.08
in COC(C)(C)C | -7.27
in O | -1.61

CCCOC(=O)c1ccccc1C(=O)OCCC
Details | solvation free energy, 298 K [kcal/mol]
in O | -7.56

Clc1ccc(-c2ccc(Cl)c(Cl)c2)cc1Cl
Details | solvation free energy, 298 K [kcal/mol]
in O | -3.62

C#CCCCCCCC
Details | solvation free energy, 298 K [kcal/mol]
in O | 0.74

COCCOC(=O)c1ccccc1C(=O)OCCOC
Details | solvation free energy, 298 K [kcal/mol]
in O | -13.5

O=c1[nH]cc(Br)c(=O)[nH]1
Details | solvation free energy, 298 K [kcal/mol]
in O | -18.2

CC(=O)C(C)C(C)=O
Details | solvation free energy, 298 K [kcal/mol]
in O | -4.75

C=C1CCC23C(C)CCC(C(C)C)C2C13 (stereo unspecified)
Details | solvation free energy, 298 K [kcal/mol]
in O | 0.63

Nc1ccccc1-c1ccccc1
Details | solvation free energy, 298 K [kcal/mol]
in O | -7.27

CN(C)c1ccc(C(=O)O)cc1
Details | solvation free energy, 298 K [kcal/mol]
in CN(C)C=O | -13.8
in O | -9.28

CCCOC(=O)CCC
Details | solvation free energy, 298 K [kcal/mol]
in O | -2.28

C=CCCCC=C
Details | solvation free energy, 298 K [kcal/mol]
in CCCCOC(C)=O | -4.42
in CCOC(C)=O | -4.6
in O | 1.16

CCBr
Details | solvation free energy, 298 K [kcal/mol]
in Brc1cccc2ccccc12 | -3.23
in C=CCCCCCCCCCCCCCC | -2.91
in CC(=O)N(C)C | -3.44
in CC(=O)OCc1ccccc1 | -3.32
in CC(C)CC(C)(C)C | -2.95
in CCC(C)=O | -3.53
in CCCCCC | -3.14
in CCCCCCC | -3.04
in CCCCCCCC | -2.99
in CCCCCCCCO | -2.88
in CCCCCl | -3.51
in CCCCO | -3.03
in CCO | -3.03
in CCOC(C)=O | -3.53
in CN(C)C=O | -3.22
in Cc1ccc(C)cc1 | -3.41
in ClC(Cl)(Cl)Cl | -3.45
in ClC(Cl)Cl | -3.77
in ClCCCl | -3.6
in Clc1ccccc1 | -3.51
in N#Cc1ccccc1 | -3.41
in O | -0.74
in O=C1CCCCC1 | -3.55
in c1ccc2ncccc2c1 | -3.31

CCCCCCCC=O
Details | solvation free energy, 298 K [kcal/mol]
in CCCCCCCCCCCCCCCC | -5.82
in CCCCCCCCO | -7.26
in NC=O | -4.31
in O | -2.29

Oc1ccc(O)cc1
Details | solvation free energy, 298 K [kcal/mol]
in CCCCCC | -6.25
in CCCCCCCC | -6.58
in CCCCOC(C)=O | -12.2
in CCOC(C)=O | -12.3
in Cc1ccc(C)cc1 | -8.81
in Cc1cccc(C)c1 | -8.88
in Cc1ccccc1C | -8.88
in O | -12.1
